Where a SMILES comes first, the peptide text is derived from it.

The term half-life denotes the time needed for the level to fall by half in the phase considered. Low values mean fast loss, high ones slow loss.

The nature of the data set: Motilin immunoreactivity concentration in plasma, half-life after intravenous administration (Example 8). As to conditions: male, SD, rat, in vivo, iv, 10 nmol/kg. Put shortly: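 Male SD rats (7 weeks, n=3/group) received human motilin or derivative at 10 nmol/kg i.v. via tail vein; arterial blood was sampled up to 60 min, with EDTA and aprotinin added. Plasma motilin immunoreactivity was measured by competitive RIA using a rabbit polyclonal antibody against native motilin residues 1–12 and ^125I-[Tyr^7] human motilin tracer.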
For `CC[C@H](C)[C@H](NC(=O)[C@@H]1CCCN1C(=O)[C@@H](NC(=O)[C@@H](N)Cc1ccccc1)C(C)C)C(=O)N[C@@H](Cc1ccccc1)C(=O)N[C@H](C(=O)N[C@@H](Cc1ccc(O)cc1)C(=O)NCC(=O)N[C@@H](CCC(=O)O)C(=O)N[C@@H](CC(C)C)C(=O)N[C@@H](CCC(N)=O)C(=O)N[C@@H](CCCNC(=N)N)C(=O)N[C@H](C(=O)N[C@@H](CCC(N)=O)C(=O)N[C@@H](CCC(N)=O)C(=O)N[C@@H](CCCNC(=N)N)C(=O)N[C@@H](CCCCN)C(=O)N[C@@H](CCC(=O)O)C(=O)N[C@@H](C)C(=O)N[C@@H](CCCCN)C(=O)N[C@@H](CCCCN)C(=O)N1CCC[C@H]1C(=O)N1CCC[C@H]1C(=O)N[C@@H](C)C(=O)N[C@@H](CCCCN)C(=O)N[C@@H](CC(C)C)C(=O)N[C@@H](CCC(N)=O)C(=O)N1CCC[C@H]1C(=O)N[C@@H](CCCNC(=N)N)C(=O)O)C(C)C)[C@@H](C)O` [Chimeric motilin (S)(MG-18S/A)] (H-FVPIFTYGELQRVQQRKEAKKPPAKLQPR-OH; N-terminus and C-terminus assumed), the half-life was 9.29 min.

In the case of `CC[C@H](C)[C@H](NC(=O)[C@@H]1CCCN1C(=O)[C@@H](NC(=O)[C@@H](N)Cc1ccccc1)C(C)C)C(=O)N[C@@H](Cc1ccccc1)C(=O)N[C@H](C(=O)N[C@@H](Cc1ccc(O)cc1)C(=O)NCC(=O)N[C@@H](CCC(=O)O)C(=O)N[C@@H](CC(C)C)C(=O)N[C@@H](CCC(N)=O)C(=O)N[C@@H](CCCNC(=N)N)C(=O)N[C@H](C(=O)N[C@@H](CCC(N)=O)C(=O)N[C@@H](CCC(N)=O)C(=O)N[C@@H](CCCNC(=N)N)C(=O)N[C@@H](CCCCN)C(=O)N[C@@H](CCC(=O)O)C(=O)N[C@H](C(=O)N[C@@H](CCCCN)C(=O)N[C@@H](CCCCN)C(=O)N1CCC[C@H]1C(=O)N1CCC[C@H]1C(=O)N[C@@H](C)C(=O)N[C@@H](CCCCN)C(=O)N[C@@H](CC(C)C)C(=O)N[C@@H](CCC(N)=O)C(=O)N1CCC[C@H]1C(=O)N[C@@H](CCCNC(=N)N)C(=O)O)[C@@H](C)O)C(C)C)[C@@H](C)O` [Chimeric motilin (P)(MG-18S/T)] (H-FVPIFTYGELQRVQQRKETKKPPAKLQPR-OH; N-terminus and C-terminus assumed), the half-life was determined as 9.67 min. The compound `CC[C@H](C)[C@H](NC(=O)[C@@H]1CCCN1C(=O)[C@@H](NC(=O)[C@@H](N)Cc1ccccc1)C(C)C)C(=O)N[C@@H](Cc1ccccc1)C(=O)N[C@H](C(=O)N[C@@H](Cc1ccc(O)cc1)C(=O)NCC(=O)N[C@@H](CCC(=O)O)C(=O)N[C@@H](CC(C)C)C(=O)N[C@@H](CCC(N)=O)C(=O)N[C@@H](CCCNC(=N)N)C(=O)N[C@H](C(=O)N[C@@H](CCC(N)=O)C(=O)N[C@@H](CCC(N)=O)C(=O)N[C@@H](CCCNC(=N)N)C(=O)N[C@@H](CCCCN)C(=O)N[C@@H](CCC(=O)O)C(=O)N[C@@H](CO)C(=O)N[C@@H](CCCCN)C(=O)N[C@@H](CCCCN)C(=O)N[C@@H](C)C(=O)N[C@@H](CCCCN)C(=O)N[C@@H](CC(C)C)C(=O)N[C@@H](C)C(=O)N[C@@H](C)C(=O)N[C@@H](CC(C)C)C(=O)N[C@@H](CCCCN)C(=O)N[C@@H](C)C(=O)O)C(C)C)[C@@H](C)O` [Chimeric motilin (V) (MG-dPPH1)] (H-FVPIFTYGELQRVQQRKESKKAKLAALKA-OH; N-terminus and C-terminus assumed) had a half-life of 8.94 min. Take `CC[C@H](C)[C@H](NC(=O)[C@@H]1CCCN1C(=O)[C@@H](NC(=O)[C@@H](N)Cc1ccccc1)C(C)C)C(=O)N[C@@H](Cc1ccccc1)C(=O)N[C@H](C(=O)N[C@@H](Cc1ccc(O)cc1)C(=O)NCC(=O)N[C@@H](CCC(=O)O)C(=O)N[C@@H](CC(C)C)C(=O)N[C@@H](CCC(N)=O)C(=O)N[C@@H](CCCNC(=N)N)C(=O)N[C@@H](CCCCN)C(=O)N[C@@H](CCC(=O)O)C(=O)N[C@@H](CO)C(=O)N[C@@H](CCCCN)C(=O)N[C@@H](CCCCN)C(=O)N1CCC[C@H]1C(=O)N1CCC[C@H]1C(=O)N[C@@H](C)C(=O)N[C@@H](CCCCN)C(=O)N[C@@H](CC(C)C)C(=O)N[C@@H](C)C(=O)N[C@@H](C)C(=O)N[C@@H](CC(C)C)C(=O)N[C@@H](CCCCN)C(=O)N[C@@H](C)C(=O)O)[C@@H](C)O` [Chimeric motilin (XI) (MG-d12/14)] (H-FVPIFTYGELQRKESKKPPAKLAALKA-OH; N-terminus and C-terminus assumed): the half-life was 10.3 min. On to `CC[C@H](C)[C@H](NC(=O)[C@@H]1CCCN1C(=O)[C@@H](NC(=O)[C@@H](N)Cc1ccccc1)C(C)C)C(=O)N[C@@H](Cc1ccccc1)C(=O)N[C@H](C(=O)N[C@@H](Cc1ccc(O)cc1)C(=O)NCC(=O)N[C@@H](CCC(=O)O)C(=O)N[C@@H](CC(C)C)C(=O)N[C@@H](CCC(N)=O)C(=O)N[C@@H](CCCNC(=N)N)C(=O)N[C@H](C(=O)N[C@@H](CCC(N)=O)C(=O)N[C@@H](CCC(N)=O)C(=O)N[C@@H](CCCNC(=N)N)C(=O)N[C@@H](CCCCN)C(=O)N[C@@H](CCC(=O)O)C(=O)N1CCC[C@H]1C(=O)N[C@@H](CCCCN)C(=O)N[C@@H](CCCCN)C(=O)N1CCC[C@H]1C(=O)N1CCC[C@H]1C(=O)N[C@@H](C)C(=O)N[C@@H](CCCCN)C(=O)N[C@@H](CC(C)C)C(=O)N[C@@H](CCC(N)=O)C(=O)N1CCC[C@H]1C(=O)N[C@@H](CCCNC(=N)N)C(=O)O)C(C)C)[C@@H](C)O` [Chimeric motilin (Q)(MG-18S/P)] (H-FVPIFTYGELQRVQQRKEPKKPPAKLQPR-OH; N-terminus and C-terminus assumed), for which the half-life was found to be 9.65 min. The half-life values of the last two compounds are within 1.5-fold of each other. Then `CC[C@H](C)[C@H](NC(=O)[C@@H]1CCCN1C(=O)[C@@H](NC(=O)[C@@H](N)Cc1ccccc1)C(C)C)C(=O)N[C@@H](Cc1ccccc1)C(=O)N[C@H](C(=O)N[C@@H](Cc1ccc(O)cc1)C(=O)NCC(=O)N[C@@H](CCC(=O)O)C(=O)N[C@@H](CC(C)C)C(=O)N[C@@H](CCC(N)=O)C(=O)N[C@@H](CCCNC(=N)N)C(=O)N[C@H](C(=O)N[C@@H](CCC(N)=O)C(=O)N[C@@H](CCC(N)=O)C(=O)N[C@@H](CCCNC(=N)N)C(=O)N[C@@H](CCCCN)C(=O)N[C@@H](CCC(=O)O)C(=O)N[C@@H](CO)C(=O)NCC(=O)N[C@@H](CCCCN)C(=O)N[C@@H](CCCCN)C(=O)N1CCC[C@H]1C(=O)N1CCC[C@H]1C(=O)N[C@@H](C)C(=O)N[C@@H](CCCCN)C(=O)N[C@@H](CC(C)C)C(=O)N[C@@H](CCC(N)=O)C(=O)N1CCC[C@H]1C(=O)N[C@@H](CCCNC(=N)N)C(=O)O)C(C)C)[C@@H](C)O` [Chimeric motilin (I)(MG-i19G)] (H-FVPIFTYGELQRVQQRKESGKKPPAKLQPR-OH; N-terminus and C-terminus assumed), with 11.6 min. On to `CC[C@H](C)[C@H](NC(=O)[C@@H]1CCCN1C(=O)[C@@H](NC(=O)[C@@H](N)Cc1ccccc1)C(C)C)C(=O)N[C@@H](Cc1ccccc1)C(=O)N[C@H](C(=O)N[C@@H](Cc1ccc(O)cc1)C(=O)NCC(=O)N[C@@H](CCC(=O)O)C(=O)N[C@@H](CC(C)C)C(=O)N[C@@H](CCC(N)=O)C(=O)N[C@@H](CCCNC(=N)N)C(=O)N[C@H](C(=O)N[C@@H](CCC(N)=O)C(=O)N[C@@H](CCC(N)=O)C(=O)N[C@@H](CCCNC(=N)N)C(=O)N[C@@H](CCCCN)C(=O)N[C@@H](CCC(=O)O)C(=O)N[C@@H](CCCCN)C(=O)N[C@@H](CCCCN)C(=O)N1CCC[C@H]1C(=O)N1CCC[C@H]1C(=O)N[C@@H](C)C(=O)N[C@@H](CCCCN)C(=O)N[C@@H](CC(C)C)C(=O)N[C@@H](CCC(N)=O)C(=O)N1CCC[C@H]1C(=O)N[C@@H](CCCNC(=N)N)C(=O)O)C(C)C)[C@@H](C)O` [Chimeric motilin (N)(MG-dS)] (H-FVPIFTYGELQRVQQRKEKKPPAKLQPR-OH; N-terminus and C-terminus assumed), for which the half-life turned out to be 9.12 min. The half-life values of the last two compounds are within 1.5-fold of each other.

(Values after patent publication US8551937B2, “Peptide having an extending action for half-life of object peptide in plasma” (priority 2008, dated 2013).)
